# Test results as given in publication PMC6315541, “Nile Tilapia Derived Antimicrobial Peptide TP4 Exerts Antineoplastic Activity Through Microtubule Disruption” (Marine Drugs, 2018).
# Test system: α-Tubulin
# Assay: Co-immunoprecipitation (TP4 antibody pull-down), LC-MS/MS and immunoblot
# Format: binding, Homo sapiens
# Details: lysates of A549 cells treated with 10 μg mL^−1 TP4 for 3 h
# Protocol: To characterize the intracellular targets of TP4, cell lysates from A549 cells treated with 10 μg mL^−1 TP4 for 3 h were pulled down with the TP4 antibody, see Figure 1A. The dominant band was excised from the gel and analyzed by LC-MS/MS. Based on a MASCOT search for peptides found by MS, the potential binding target for TP4 was identified as α-Tubulin, see Figure 1C and Supplementary Dataset S1. […] Because tubulin is the major component of microtubules, we hypothesized that the cytotoxic effects of intracellular TP4 may be related to microtubule dynamics.
# Figure 1 TP4 interacts with α-Tubulin. (A) Procedure showing the pull down of TP4 interaction partners with TP4 antibody. […] (C) Protein database searching of peptides detected by MS identified α-Tubulin as a TP4 binding partner. α-Tubulin sequence is shown. […]
# Cell lysates were prepared in immunoprecipitation (IP) detergent (50 mM Tris-HCl, pH 8.0, 150 mM NaCl, 1% Igepal CA-630: Sigma-Aldrich, St. Louis, MO, USA) with protease cocktail (Roche Applied Science, Mannheim, Germany). […] The mass spectrometry data were analyzed by Mascot engine (v.2.6.0) (Matrix Science Inc., Boston, MA, USA) to identify candidate interaction targets. […] Signals were detected by enhanced chemiluminescence (Immobilon Western Chemiluminescent HRP substrate, Merck Millipore, Billerica, MA, USA) on an imaging system (UVP, BioSpectrumTM 500, Upland, CA, USA). […]
sequence,measurement,value
"FIHHIIGGLFSAGKAIHRLIRRRRR [TP4, synthesized Nile tilapia-derived antimicrobial peptide, Tilapia piscidin 4]","interaction with α-Tubulin (IP with TP4 antibody, probed with α-Tubulin antibody)",confirming the interaction between TP4 and α-Tubulin
